According to ChEMBL document CHEMBL1201862, “PubChem BioAssay data set” (2004):
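Following 48 hours of exposure in 96-well plates, responses at five concentrations were used to interpolate endpoints linearly. GI50 is the concentration that inhibits growth by half.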 The source made the active and inactive calls. Cut-off read from the data, not from the text of the source: active = GI50 up to about 1.1 µM and inactive = higher.

How the values were obtained:
Assay in all cases: DTP human tumour cell line panel, 48 h
IGROV-1 = test system: IGROV-1
HOP-62 = test system: HOP-62
OVCAR-4 = test system: OVCAR-4
T47D = test system: T47D
UACC-62 = test system: UACC-62
SK-MEL-5 = test system: SK-MEL-5
SNB-19 = test system: SNB-19
TK-10 = test system: TK-10
SK-OV-3 = test system: SK-OV-3
CAKI-1 = test system: CAKI-1
MDA-MB-231 = test system: MDA-MB-231
SW-620 = test system: SW-620
A549 = test system: A549
MDA-N = test system: MDA-N
HCC 2998 = test system: HCC 2998
HOP-92 = test system: HOP-92
NCI-H226 = test system: NCI-H226
CCRF-CEM = test system: CCRF-CEM
MOLT-4 = test system: MOLT-4
HL-60 = test system: HL-60

Measured: GI50

O=S1(=O)CCN(Cc2ccccn2)CC1
inactive: IGROV-1 > 100 µM | HOP-62 > 100 µM | OVCAR-4 > 100 µM | T47D > 100 µM | UACC-62 > 100 µM | SK-MEL-5 > 100 µM | SNB-19 > 100 µM | TK-10 > 100 µM | SK-OV-3 > 100 µM | CAKI-1 > 100 µM | MDA-MB-231 > 100 µM | SW-620 > 100 µM | A549 > 100 µM | MDA-N > 100 µM | HCC 2998 > 100 µM | HOP-92 > 100 µM | NCI-H226 > 100 µM

O=C(/C=C/c1ccc2c(c1)OCO2)NCc1ccco1
inactive: IGROV-1 56 µM | HOP-62 > 100 µM | OVCAR-4 41.6 µM | T47D 19.4 µM | CCRF-CEM > 100 µM | UACC-62 74.6 µM | SK-MEL-5 > 100 µM | SNB-19 50.9 µM | TK-10 > 100 µM | SK-OV-3 > 100 µM | CAKI-1 > 100 µM | MDA-MB-231 > 100 µM | SW-620 > 100 µM | A549 > 100 µM | MDA-N > 100 µM | HCC 2998 > 100 µM | HOP-92 92.5 µM | NCI-H226 > 100 µM | MOLT-4 > 100 µM

CCNC1=C(NC(=O)c2ccccc2)C(=O)c2ccccc2C1=O
inactive: IGROV-1 46.9 µM | HOP-62 66.2 µM | OVCAR-4 81.3 µM | T47D 14.1 µM | CCRF-CEM 70.1 µM | UACC-62 20 µM | SK-MEL-5 > 10 µM | SNB-19 83.2 µM | TK-10 98.4 µM | HL-60 36.3 µM | SK-OV-3 24 µM | MDA-MB-231 6.12 µM | SW-620 23.4 µM | A549 67.6 µM | MDA-N 4.9 µM | HCC 2998 33 µM | HOP-92 55.6 µM | NCI-H226 27.9 µM | MOLT-4 63.4 µM

O=c1[nH]nc(-c2ccccc2)n1-c1cccc([N+](=O)[O-])c1
inactive: IGROV-1 > 100 µM | HOP-62 > 100 µM | OVCAR-4 > 100 µM | T47D > 100 µM | CCRF-CEM > 100 µM | UACC-62 > 100 µM | SK-MEL-5 > 100 µM | SNB-19 > 100 µM | TK-10 > 100 µM | SK-OV-3 > 100 µM | CAKI-1 89.5 µM | MDA-MB-231 > 100 µM | SW-620 > 100 µM | A549 > 100 µM | MDA-N > 100 µM | HCC 2998 > 100 µM | HOP-92 > 100 µM | NCI-H226 > 100 µM | MOLT-4 > 100 µM

O=C(O)c1nc2ccc(C(F)(F)F)cc2nc1NCc1ccc(F)cc1
inactive: IGROV-1 25.4 µM | HOP-62 19.1 µM | OVCAR-4 > 100 µM | T47D 20.8 µM | CCRF-CEM 37.3 µM | UACC-62 15.9 µM | SK-MEL-5 16.9 µM | SNB-19 24.5 µM | SK-OV-3 31.7 µM | CAKI-1 37.8 µM | MDA-MB-231 32.4 µM | SW-620 33 µM | A549 19.1 µM | MDA-N 28 µM | HCC 2998 22.8 µM | HOP-92 17.1 µM | NCI-H226 39.5 µM | MOLT-4 9.23 µM

CC(C)(C)OC(=O)NC(Cc1ccc(OCc2ccccc2)cn1)C(=O)N1CCCCC1 (stereo not drawn)
inactive: IGROV-1 53.7 µM | HOP-62 49.9 µM | T47D 12.1 µM | CCRF-CEM 31.8 µM | UACC-62 29.1 µM | SK-MEL-5 16.4 µM | SNB-19 80.5 µM | TK-10 37.1 µM | HL-60 27 µM | SK-OV-3 58.6 µM | CAKI-1 60.4 µM | MDA-MB-231 43.4 µM | SW-620 89.3 µM | A549 49.7 µM | MDA-N 28.1 µM | HCC 2998 19.9 µM | HOP-92 39.9 µM | MOLT-4 19.5 µM

COC(=O)c1ccccc1C1CN=NC12Cc1ccc3ccccc3c1C2=O (stereo not drawn)
inactive: IGROV-1 > 100 µM | OVCAR-4 > 100 µM | T47D 21.1 µM | CCRF-CEM 70.5 µM | UACC-62 > 100 µM | SK-MEL-5 6.08 µM | SNB-19 > 100 µM | TK-10 > 100 µM | HL-60 8.43 µM | CAKI-1 > 100 µM | MDA-MB-231 > 100 µM | SW-620 > 100 µM | A549 85.3 µM | MDA-N > 100 µM | HCC 2998 > 100 µM | HOP-92 97.9 µM | NCI-H226 > 100 µM | MOLT-4 57.3 µM

Cc1ccc(/C=C2\CN(C)CC3C(c4ccc(C)cc4)=C(C#N)C(=O)NC23)cc1 (stereo not drawn)
inactive: IGROV-1 > 50 µM | HOP-62 > 50 µM | OVCAR-4 > 50 µM | T47D > 50 µM | CCRF-CEM > 50 µM | UACC-62 > 50 µM | SK-MEL-5 > 50 µM | SNB-19 > 50 µM | TK-10 > 50 µM | SK-OV-3 > 50 µM | CAKI-1 > 50 µM | MDA-MB-231 48.2 µM | SW-620 > 50 µM | A549 > 50 µM | MDA-N > 50 µM | HCC 2998 > 50 µM | HOP-92 29.3 µM | NCI-H226 > 50 µM | MOLT-4 > 50 µM

O=C(NCCCCNCCCNC(=O)c1cc(-c2ccccc2)nc2ccccc12)c1cc(-c2ccccc2)nc2ccccc12
inactive: IGROV-1 1.55 µM | HOP-62 1.63 µM | T47D 1.87 µM | CCRF-CEM 1.62 µM | UACC-62 2.12 µM | SK-MEL-5 1.44 µM | SNB-19 1.76 µM | TK-10 1.59 µM | HL-60 1.71 µM | CAKI-1 1.84 µM | MDA-MB-231 1.85 µM | SW-620 1.71 µM | A549 1.65 µM | MDA-N 1.83 µM | HCC 2998 1.64 µM | HOP-92 1.37 µM | NCI-H226 1.78 µM | MOLT-4 1.42 µM

CCCCCCCC/C=C/CCCCCCCC1CC(O)C(=O)O1 (stereo not drawn)
inactive: IGROV-1 85.3 µM | HOP-62 41.4 µM | OVCAR-4 43.2 µM | T47D 39.5 µM | CCRF-CEM 39.9 µM | UACC-62 63.2 µM | SK-MEL-5 46.1 µM | SNB-19 65.2 µM | TK-10 > 100 µM | HL-60 35.3 µM | SK-OV-3 79.8 µM | MDA-MB-231 > 100 µM | SW-620 55.5 µM | A549 51.6 µM | MDA-N 59.7 µM | HCC 2998 61.4 µM | HOP-92 26.7 µM | NCI-H226 > 100 µM | MOLT-4 32.9 µM

[N-]=[N+]=NC1=CC(=O)c2cccc3cccc1c23
inactive: IGROV-1 15.8 µM | HOP-62 15.7 µM | OVCAR-4 56.9 µM | T47D 22.3 µM | CCRF-CEM 10.6 µM | UACC-62 16.5 µM | SK-MEL-5 12 µM | SNB-19 36.5 µM | TK-10 44.4 µM | HL-60 > 100 µM | SK-OV-3 15.3 µM | CAKI-1 22.2 µM | MDA-MB-231 73.8 µM | SW-620 17 µM | A549 32.4 µM | MDA-N 46.2 µM | HCC 2998 38 µM | HOP-92 18.4 µM | MOLT-4 10.7 µM
